Point of comparison: `COC(=O)c1c(C)cn2cc(OCc3ccccc3)ccc12`, melting point 143 °C. Against it:
- OCCCCOc1cccc(/C=C/c2nc3ccccc3s2)c1 — lower, 88 to 90 °C
- CC(=O)n1nc(-c2cnccn2)nc1-c1cnccn1 — lower, 128 to 130 °C
- COC(=O)c1ccc(C(=O)c2ccccc2)o1 — lower, 70 to 73 °C
- CCn1c(=O)c2[nH]c(/C=C/c3ccc(Br)cc3)nc2n(CC)c1=O — higher, > 270 °C
- CCC1c2ncn(CC)c2CCN1C(=S)NC(C)C (configuration not stated) — higher, 196 °C
- CC(=O)OC/C(=C(\C(=O)O)c1ccc(F)cc1)c1ccc(S(C)(=O)=O)cc1 — higher, 187 °C
- CC(C)c1cccc(C(C)C)c1NC(=O)CNC(c1ccccc1)c1ccc(O)cc1 (configuration not stated) — higher, 190 to 192 °C
- O=S(=O)(c1ccc(N2CCCCCC2)cc1)N1CCCC1=S — higher, 172 to 173 °C
- Oc1ccc2c(c1)OCC(c1ccc(F)cc1)C2c1ccc(OCCN2CCCC2)cc1 (configuration not stated) — higher, 164 to 167 °C
- COc1cc(SC#N)cc(C#N)c1N — lower, 121 to 122 °C
- O=c1cc(CO)oc(CO)c1O — higher, 160 to 161 °C
- CC(=O)NCCCCC(=O)OC1c2ccccc2C(=O)N1c1ccc2ccc(Cl)nc2n1 (configuration not stated) — higher, 185 °C
- Fc1ccc(C23COC(c4ccc(Cl)cc4)(OC2)OC3)cc1 — higher, 251 to 252 °C
- Cc1cc(N)c(S(N)(=O)=O)cc1-c1ccccn1 — higher, 229 to 231 °C
- N#Cc1ccc2[nH]cc(CCNCC(F)(F)F)c2c1 — lower, 102 °C
- Cc1cc(-c2[nH]c3ccc(N)cc3c2C)cc(C)c1O — higher, 184 to 185 °C
- CN(C)CCC1(c2ccccc2)CCc2ccccc2C1=O (configuration not stated) — lower, 71 to 72 °C
- COc1cc(C=O)ccc1OCc1nc(-c2cccc([N+](=O)[O-])c2)oc1C — higher, 179 to 180 °C
- COc1cc(C)nc(NC(=O)NS(=O)(=O)c2ccsc2C(=O)N2CCCC2=O)n1 — higher, 184 to 185 °C
- COc1ccc(/C=C(\C#N)c2c(Cl)cccc2Cl)cc1OC1CCCC1 — higher, 164 to 166 °C
- CC(=O)Nc1cc(=O)cc2n1CCCCC2 — higher, > 230 °C
- CN(C)C(=O)Oc1ccc(CO)cc1 — lower, 76 °C
- CC(=O)NCC1CN(c2ccc(N3CCC(n4ccnn4)C(F)C3)c(F)c2)C(=O)O1 (configuration not stated) — higher, 158 to 160 °C
- CCCOc1ccc(S(C)(=O)=O)cc1-c1nc2c(CC)n[nH]c2c(=O)[nH]1 — higher, 276 to 277 °C
- COc1cc2cnc(C(=O)O)cc2cc1OC — higher, 228 °C
- COc1ccc2nc(COc3ccc(CC(C(N)=O)S(C)(=O)=O)cc3)n(C)c2c1 (configuration not stated) — higher, 233 to 236 °C
- CC(=O)c1ccc(-n2c(-c3cc(-c4ccccc4)c(N4CCOCC4)s3)nc3ccccc3c2=O)cc1 — higher, > 275 °C
- CCCCc1cc2ccccc2c(Oc2ccc(/C=C/C(=O)O)cc2)c1-c1ccccc1 — higher, 160 to 161 °C
- COC(=O)CC1Cc2ccc(O)cc2NC1=O (configuration not stated) — higher, 178 to 180 °C
- CN1CC=C(c2c[nH]c3ccc(O)cc23)CC1 — higher, 182 to 185 °C
- CCOC(=O)c1cccc(-c2nccc(OCCc3ccc(OC)c(OC)c3)n2)c1 — lower, 101 to 102 °C
- Cc1cccc(NC(=O)NCC(=O)N(c2ccccc2)C(C(=O)OC(C)(C)C)c2cccc(Cl)c2)c1 (racemic) — lower, 100 °C
- N#Cc1ccc(CCl)cn1 — lower, 45 to 47 °C
- O=C1C(=CO)Cc2c1cnn2Cc1ccccc1 — higher, 171 to 172 °C
- CCOC(=O)CNc1nc2ccccc2s1 — lower, 91 to 97 °C
- CC(C)Cn1c(Nc2cc(C(F)(F)F)ccc2C(F)(F)F)nc(C(F)(F)F)cc1=O — lower, 136 to 138 °C
- Cc1ccc(-c2ccc(F)cc2)cc1-c1c(O)c(C)nn(C)c1=O — higher, 216 to 217 °C
- c1ccc(COc2ccc3c(c2)OC[C@@H](c2ccccc2)[C@H]3c2ccc(OCCCCCCN3CCOCC3)cc2)cc1 (racemic) — lower, 85.7 to 87.5 °C
- CCCc1c(OCC(O)COc2ccc(C(=O)O)cc2Cl)ccc(C(C)=O)c1O (configuration not stated) — lower, 100 to 103 °C
- CC(=O)c1ccc(S(=O)(=O)N2CCN(C)CC2)cc1 — lower, 118 to 119 °C
- CNC1=NS(=O)N=C1CCS (configuration not stated) — higher, 191 to 193 °C
- CCCOC(C)c1ccc(OCc2ccccc2)cc1 (single isomer, unassigned; (+)) — lower, 51 to 53 °C
- CCOC(=O)C1=C(N)NC(N)=C(C(=O)OCC)C1c1cccc(C(=O)OCC)c1 — higher, 191 °C
- COC(=O)Cc1cn(-c2ccccc2)nc1OCc1ccccc1 — lower, 74 to 75 °C
- N#Cc1cc(Br)c(OC(=O)OCI)c(Br)c1 — lower, 103 to 105 °C
- O=C1N(Cc2cnc(Cl)s2)c2ccccc2C12COc1cc3c(cc12)OCO3 (configuration not stated) — higher, 195 to 198 °C
- NC(=S)Nc1ccccc1-c1ccccc1F — higher, 175 to 177 °C
- O=C(CC(NC(=O)c1ccccc1)c1ccccc1)Nc1n[nH]c(=S)s1 (configuration not stated) — higher, 266 to 267 °C
- CCCC(=O)NCC1Cc2ccc(-c3ccc(=O)[nH]n3)cc2C1 (configuration not stated) — higher, 204 to 205 °C
- COc1cc2c(cc1-c1cccnc1)-c1c(-c3cccs3)c3c(n1CC2)C(=O)N(C(C)C)CCN(C(=O)OC(C)(C)C)C3 — higher, 207 to 208 °C
- CCCc1c(OCC(O)COc2cccc(NC(=O)c3nnn[nH]3)c2C#N)ccc(C(C)=O)c1O (configuration not stated) — lower, 117 to 119 °C
- CC(=O)Nc1ccc(S(=O)(=O)N(Cc2cc(C(C)(C)C)c(O)c(C(C)(C)C)c2)c2cccnc2)cc1 — higher, 167 to 169 °C
- CS(=O)(=O)c1ncc(F)c(NCc2ccccc2F)n1 — lower, 105 to 107 °C
- CC(C)C1(C)NC(c2ncccc2CO)=NC1=O (configuration not stated) — higher, 145 to 149 °C
- Cc1cc2c(cc1Br)C(C)(C)CCC2(C)C — lower, 73 °C
- O[C@@H]1CCc2cc(F)c(F)cc2C1 — lower, 88 to 92 °C
- O=C(/C=C/c1cccc(S(=O)(=O)N2CCN(Cc3ccccc3)CC2)c1)NO — higher, 185 °C
- COCCn1cc2c(=O)[nH]c(=O)[nH]c2n1 — higher, 295 to 302 °C
- COC(=O)N(c1ccccn1)C(C(=O)NC(Cc1ccccc1)C(O)CN1C2CCC(C2)N1C(=O)OC(C)(C)C)C(C)C (mixture of isomers) — lower, 73 to 77 °C
- CCOC(=O)Oc1cc2c(s1)CCN([C@H](C(=O)OC)c1ccccc1Cl)C2 — lower, 42 to 44 °C
- CC1(C)CC(Oc2ccc(O)nn2)c2cc(C#N)ccc2O1 (configuration not stated) — higher, 221 to 224 °C
- CCCCCCCCCCCCCCC(=O)CCl — lower, 52.5 to 53.5 °C
- O=C1Nc2ccc(F)cc2C1c1ncnc2c1cnn2C1CCCC1 (configuration not stated) — higher, 254 to 257 °C
- CC(=O)CC(=O)Nc1ccc(N)c([N+](=O)[O-])c1 — higher, 146 to 147 °C
- CCCc1c(C(=O)NCc2ccc(-c3ccc(OCC(=O)O)c(Br)c3)cc2)cnn1-c1ccccc1 — higher, 204 to 206 °C
- CC(C)(C)c1ccc(-c2nnc(-c3ccc(C(=O)O)cc3N)o2)cc1 — higher, 266 to 268 °C
- FC(F)(F)c1cc(CO[C@H]2CCCN(Cc3ccccc3)[C@H]2c2ccccc2)cc(C(F)(F)F)c1 — lower, 89 to 93 °C
- CC(C)(C)OC(=O)N1CCN(C(=O)c2nc3c(N)nc(N)nc3nc2N)CC1 — higher, 245 to 250 °C
- CC(C)(O)CCCCCc1ccc(CCc2ccc(O)c(CO)c2)cc1 — lower, 110 to 111 °C
- NC(=S)NC(=O)c1ccccc1 — higher, 170 to 171 °C
- O=c1cc(-c2ccc(OC3CCN(C4CCC4)CC3)cc2)cn[nH]1 — higher, 296 to 298 °C
- CCOc1ccc(-c2ccc3c(c2)C=C(C(=O)OC)CCN3C=O)cc1F — lower, 126 to 128 °C
- CC(C)(C)OC(=O)NCc1ccc(N2CC(C(=O)O)OC2=O)cc1 (configuration not stated) — higher, 166 °C
- COC(C)(CC(=O)Nc1cccc(OC(=O)NC(C)C)c1)OC — higher, 160 °C
- Cc1ccc(S(=O)(=O)N2CCN(c3ccc(O)cc3)CC2)cc1 — higher, 193 °C
- Oc1cc(-c2ccccc2)ncn1 — higher, 266 to 267 °C
- O=C(c1ccc2nc[nH]c(=O)c2c1)c1ncc2ccccn12 — higher, 289 °C
- O=C(O)c1ccc(-c2nccs2)nc1 — higher, > 300 °C
- COc1ccccc1C(=O)c1c(SC)nn(-c2c(Cl)cc(Cl)cc2Cl)c1N — higher, 200 to 202 °C
- COC1C(OC(=O)N2CCOCC2)CCC2(CO2)C1C1(C)OC1CCC(C)C (configuration not stated) — lower, 64 to 65 °C
- C[C@@H](n1ccn(-c2ccc(OC(F)(F)C(F)F)cc2)c1=O)[C@@]1(c2ccc(F)cc2F)CO1 — lower, 117 to 118 °C
- COc1cc(C=O)ccc1OCC(=O)c1cc(C(C)(C)C)c(O)c(C(C)(C)C)c1 — lower, 99 to 100 °C
- CC(C)COc1cc(O)c2c(c1)OC(C)(C)CC2=O — lower, 77 to 79 °C
- COc1c(C)cc(C(=O)CCC(=O)O)cc1C — lower, 108 °C
- O=Cc1ncc(C(O)C(F)(F)F)s1 (configuration not stated) — lower, 64 to 66 °C
- CC(C)(C)c1cc(SC2(Sc3cc(C(C)(C)C)c(O)c(C(C)(C)C)c3)CCCCCC2)cc(C(C)(C)C)c1O — higher, 144 to 146 °C
- C=CCNc1nc(NCc2ccccc2)nc2ccc([N+](=O)[O-])cc12 — higher, 216 to 217 °C
- N#Cc1nn(-c2c(Cl)cc(C(F)(F)F)cc2Cl)c(Br)c1S(=O)(=O)C(F)(F)F — lower, 136 to 137 °C
- CCn1cc(C(=O)O)c(=O)c2cc(F)c(N3CCN(Cc4ccc(N)cc4)CC3)c(F)c21 — higher, 220 to 221 °C
- CC(C)c1cc(C(C)C)c(CC(=O)NS(=O)(=O)Oc2c(C(C)C)cc(N)cc2C(C)C)c(C(C)C)c1 — higher, 153 to 155 °C
- COc1cc2c(cc1OC)CN(CC(O)c1ccc([N+](=O)[O-])cc1)CC2 (configuration not stated) — lower, 130 °C
- COc1ccc2c(c1)CCN1C[C@H]3CCCN[C@H]3C[C@@H]21 — lower, 125 to 127 °C
- CC(=O)n1ccc(-c2ccc(C(=O)N3Cc4cccn4Cc4ccccc43)cc2)n1 — higher, 192 to 194 °C
- Cc1c(F)cccc1NC(=O)CN1CC2CCC(C1)N2S(=O)(=O)c1ccccc1 — higher, 168 to 169 °C
- Cc1nn(C)c(OCC(=O)c2ccccc2)c1C(=O)c1ccc(Cl)c(C)c1Cl — higher, 150 to 152 °C
- CCN1CCCC1CNC(=O)c1c(O)c(Cl)cc(Cl)c1OC (single isomer, unassigned; (-)) — lower, 48 to 49 °C
- Cc1cc2ccccn2c1 — lower, 57 to 58 °C
- COc1c(C2CCN(CCCCNC(=O)c3ccc(-c4ccc(Cl)cc4)c(OCC(N)=O)c3)CC2)ccc2c1CCCC2 — higher, 198 °C
- CNC(=O)C(=O)c1ccccc1Oc1ccccc1 — lower, 94 to 95 °C
- O=c1cc2c(n[nH]1)CCc1cc(O)ccc1-2 — higher, > 300 °C
- Cc1c[nH]c2cccc(C3CCCNC3)c12 (configuration not stated) — higher, 150 °C

From a melting point compilation (Tetko et al.; mined from patent text by program, amines drawn as free bases though some values may be those of a salt)
